# Measured values as given in PMC10980815, “Cell surface patching via CXCR4-targeted nanothreads for cancer metastasis inhibition” (Nature Communications, 2024).
# Experiments:
# Assay in all cases: Dose-dependent chemokine receptor occupation assay
# Format in all cases: binding, 4T1 murine cells
# CXCR2 = target: T1, CXCR2 (Mus musculus, UniProt P35343); details: 4T1 cells, 0.1 nM to 1 mM, 1 h
# T1 construct: endogenous in cells; host or cells: 4T1 murine breast cancer cells
# T1 sequence (P35343 1-359): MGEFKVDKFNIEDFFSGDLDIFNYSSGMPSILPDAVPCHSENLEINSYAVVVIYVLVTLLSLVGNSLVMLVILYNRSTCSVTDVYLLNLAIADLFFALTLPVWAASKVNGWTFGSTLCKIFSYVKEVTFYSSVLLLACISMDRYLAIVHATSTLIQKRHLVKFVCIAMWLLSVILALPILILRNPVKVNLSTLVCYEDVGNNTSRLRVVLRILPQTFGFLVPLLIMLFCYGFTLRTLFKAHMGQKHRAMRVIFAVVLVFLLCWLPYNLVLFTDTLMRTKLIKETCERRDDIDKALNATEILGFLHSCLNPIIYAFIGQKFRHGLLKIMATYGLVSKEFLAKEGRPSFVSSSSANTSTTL
# Method: (§1) To validate the specificity of the BS (CXCR4-binding sequence) to CXCR4, a dose-dependent chemokine receptors occupation assay and a chemokine receptors competitive binding assay were conducted. […] Unoccupied chemokine receptors (CXCR4, CXCR7, CXCR2, CXCR5, and CCR4) on cell surface were stained with PE anti-human CD184/CXCR4 Antibody (1:300 dilution), anti-CXCR7-PE (1:300 dilution), anti-CXCR2-PE (1:300 dilution), anti-CXCR5-PE (1:300 dilution), and PE anti-human CD194/CCR4 Antibody (1:300 dilution) at 4 °C for 1 h, prior to flow cytometry analysis. In the chemokine receptors competitive binding assay, 4T1 cells (5 × 10^5 cells) were pre-blocked with PE anti-human CD184/CXCR4 Antibody (1:300 dilution), anti-CXCR7-PE (1:300 dilution), anti-CXCR2-PE (1:300 dilution), anti-CXCR5-PE (1:300 dilution), and PE anti-human CD194/CCR4 Antibody (1:300 dilution) at 4 °C for 1 h. Subsequently, these cells were treated with P-Cy5-BS-CM1-Cy5 (5 nM Cy5 equivalence) for 1 h. Following the treatments, cells were washed three times with PBS and subjected to flow cytometry analysis.
# CCR4 = target: T2, CCR4 (Mus musculus, UniProt P51680); details: 4T1 cells, 0.1 nM to 1 mM, 1 h
# T2 construct: endogenous in cells; host or cells: 4T1 murine breast cancer cells
# T2 sequence (P51680 1-360): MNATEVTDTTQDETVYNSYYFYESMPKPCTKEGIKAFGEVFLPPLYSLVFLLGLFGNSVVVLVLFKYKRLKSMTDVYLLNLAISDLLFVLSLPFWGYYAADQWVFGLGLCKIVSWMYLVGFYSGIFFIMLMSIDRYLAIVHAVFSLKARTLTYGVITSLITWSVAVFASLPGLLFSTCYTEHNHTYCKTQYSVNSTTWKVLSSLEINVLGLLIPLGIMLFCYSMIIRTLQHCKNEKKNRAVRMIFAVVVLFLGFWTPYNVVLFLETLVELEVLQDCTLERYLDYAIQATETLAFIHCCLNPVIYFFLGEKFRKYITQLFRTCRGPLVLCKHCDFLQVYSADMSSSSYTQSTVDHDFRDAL
# Method: as §1
# CXCR7 = target: T3, CXCR7 (Mus musculus, UniProt P56485); details: 4T1 cells, 0.1 nM to 1 mM, 1 h
# T3 construct: endogenous in cells; host or cells: 4T1 murine breast cancer cells
# T3 sequence (P56485 whole entry): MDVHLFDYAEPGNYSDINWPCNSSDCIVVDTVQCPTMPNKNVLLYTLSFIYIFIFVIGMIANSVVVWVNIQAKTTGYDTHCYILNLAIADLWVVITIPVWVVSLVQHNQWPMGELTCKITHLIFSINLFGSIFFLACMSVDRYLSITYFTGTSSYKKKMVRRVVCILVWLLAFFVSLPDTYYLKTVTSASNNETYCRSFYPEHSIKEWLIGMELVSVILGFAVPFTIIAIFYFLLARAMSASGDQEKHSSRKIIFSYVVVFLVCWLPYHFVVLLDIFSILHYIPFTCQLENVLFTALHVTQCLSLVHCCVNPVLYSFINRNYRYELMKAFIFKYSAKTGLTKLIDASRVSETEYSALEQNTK
# Method: as §1
# CXCR4 = target: T4, CXCR4 (Mus musculus, UniProt P70658); details: 4T1 cells, 0.1 nM to 1 mM, 25 °C, 1 h; unoccupied receptor stained with PE antibody
# T4 construct: endogenous in cells; host or cells: 4T1 murine breast cancer cells
# T4 sequence (P70658 whole entry): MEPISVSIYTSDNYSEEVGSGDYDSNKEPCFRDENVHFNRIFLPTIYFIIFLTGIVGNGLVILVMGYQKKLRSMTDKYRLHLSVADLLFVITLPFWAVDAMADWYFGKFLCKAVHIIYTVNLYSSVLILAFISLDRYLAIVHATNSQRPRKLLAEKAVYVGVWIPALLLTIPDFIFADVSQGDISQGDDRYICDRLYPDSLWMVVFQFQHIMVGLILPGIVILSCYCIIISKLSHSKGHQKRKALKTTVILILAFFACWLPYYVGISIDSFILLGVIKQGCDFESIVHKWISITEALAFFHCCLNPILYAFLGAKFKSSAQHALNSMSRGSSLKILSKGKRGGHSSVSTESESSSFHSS
# Method: as §1
# CXCR5 = target: T5, CXCR5 (Mus musculus, UniProt Q04683); details: 4T1 cells, 0.1 nM to 1 mM, 1 h
# T5 construct: endogenous in cells; host or cells: 4T1 murine breast cancer cells
# T5 sequence (Q04683 1-374): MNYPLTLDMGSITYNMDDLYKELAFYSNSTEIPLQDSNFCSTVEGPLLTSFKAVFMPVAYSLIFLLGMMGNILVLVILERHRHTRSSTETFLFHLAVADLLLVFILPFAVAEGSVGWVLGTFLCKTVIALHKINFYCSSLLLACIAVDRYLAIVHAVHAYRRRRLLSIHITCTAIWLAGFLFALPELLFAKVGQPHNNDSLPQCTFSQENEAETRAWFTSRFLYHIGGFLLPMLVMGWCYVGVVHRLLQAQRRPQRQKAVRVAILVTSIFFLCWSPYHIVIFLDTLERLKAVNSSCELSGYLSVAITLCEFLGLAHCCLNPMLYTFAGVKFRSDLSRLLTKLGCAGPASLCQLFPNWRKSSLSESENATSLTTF
# Method: as §1
sequence,measurement,setting,value
LGASWHRPDKCCLGYQKRPLPA [Free BS],CXCR2 occupation,CXCR2,did not occupy
same,CCR4 occupation,CCR4,did not occupy
same,CXCR7 occupation,CXCR7,did not occupy
same,CXCR4 occupation,CXCR4,comparable CXCR4 occupation to AMD3100
same,CXCR5 occupation,CXCR5,did not occupy
